These results are taken from US12404232B2, “Compounds and compositions for intracellular delivery of therapeutic agents” (ModernaTX, Inc., priority 2015, dated 2025).

The subject of data set [1] is mice. Description: Luc expression (total flux) after intramuscular administration. The settings on record: 6 hours after intramuscular administration, Luc mRNA and H10 mRNA. The data set is classed as in vivo. The method, then:
The numbers 1-7 in this figure correspond to MC3, Compounds 168-170, and 173-175 respectively.
(§1) In order to monitor how effectively various nanoparticle compositions deliver therapeutic and/or prophylactics to targeted cells, different nanoparticle compositions including a particular therapeutic and/or prophylactic (for example, a modified or naturally occurring RNA such as an mRNA) are prepared and administered to rodent populations. Mice are intravenously, intramuscularly, intraarterially, or intratumorally administered a single dose including a nanoparticle composition with a formulation such as those provided in Example 3. In some instances, mice may be made to inhale doses. Dose sizes may range from 0.001 mg/kg to 10 mg/kg, where 10 mg/kg describes a dose including 10 mg of a therapeutic and/or prophylactic in a nanoparticle composition for each 1 kg of body mass of the mouse. A control composition including PBS may also be employed.
(§2) The total flux (measured by area under the curve, AUC) induced by administration of a formulation including a given lipid relative to that induced by administration of a formulation including MC3 was also measured for several lipids.
Sample formulations including both modified luciferase (Luc) mRNA and H10 mRNA were prepared and administered intramuscularly and the resulting expression and immunogenicity were evaluated simultaneously. Formulations including compounds according to Formula (I), (IA), (II), (IIa), (IIb), (IIc), (IId) or (IIe) were prepared and administered at doses of 0.001 and 0.01 mpk (e.g., doses of 0.0005 mpk of a formulation including Luc mRNA and a formulation including H10 mRNA or doses of 0.005 mpk of a formulation including Luc mRNA and a formulation including H10 mRNA).
Sample formulations including modified luciferase (Luc) mRNA prepared and administered intramuscularly and the resulting expression and immunogenicity were evaluated simultaneously. Formulations including compounds according to Formula (I), (IA), (II), (IIa), (IIb), (IIc), (IId) or (IIe) were prepared and administered at dose of […] 0.01 mpk.
The fluxes measured upon intravenous and intramuscular administration are compared in Table 6. Fluxes are presented as fold increase over that measured for MC3 formulations.

For data set [2], the system named is rats. Description: Residual lipid levels in liver and spleen of rats (UPLC-MS quantification). The settings on record: rats, 2 mpk, 48 h; assuming 300 g rat and 15 g liver. Type of data set: in vivo, rat. As to the method:
At 48 h liver tissue was harvested for lipid quantification. To pre-weighed tissues, Milli-Q water was added (900 μL water per 100 mg tissue). Tissues were homogenized using an Omni probe homogenizer until uniform. 50 μL of samples and matrix calibration standards were aliquoted into a 96-well plate. 50 μL of blank matrix for matrix blanks and control blanks were aliquoted. 400 μL IS spiking solution were manually added to all samples except matrix blanks. 400 μL of 50:50 ACN:IPA were manually added to matrix blanks. The plate was covered and the samples vortexed and centrifuged for 5 minutes at >3000 rpm. 200 μL of the samples were transferred into a clean 96-well plate for analysis. Samples were analyzed on a Waters Acquity UPLC using a Higgins Analytical Clipeus C8 column ([…], 30×2.1 mm) and a gradient of either 70-95% or 60-95% (Mobile Phase A: 5 mM ammonium formate in 50:50:1 H2O:MeOH:formic acid; Mobile Phase B: 5 mM ammonium formate in 100:1 MeOH:formic acid) over 1.3 min at 1.2 mL/min (column temperature 55° C.). Detection was based on electrospray ionization (ESI) in positive mode using a Sciex API5500 Mass Spectrometer.
The expression of hEPO in rats intravenously administered a nanoparticle composition at a dose of 0.2 mpk or 2.0 mpk was measured at 6 hours. Table 16 summarize the ratio of hEPO expression levels using various nanoparticle compositions as compared to the hEPO expression level using MC3 formulation and the lipid levels in the liver measured 48 hours after administration, as described above. Tables 17 and 18 summarize the lipid levels in the liver and spleen measured 48 hours after administration of Compounds 28, 33, 53, and 54. Liver and spleen levels represent the average values calculated for 3 rats in each group. As is shown in Tables 17 and 18, less than 10% of Compounds 28, 33, 53, and 54 remained in the liver after 48 hours, while greater than 60% of MC3 remained.
Table 19 summarizes the hEPO expression, IP-10 induction, liver and spleen levels, and alanine aminotransferase (ALT) and aspartate aminotransferase (AST) measured upon intravenous administration of formulations including Compounds 48, 49, and 50 to rat at 0.2 and 2 mpk and hEPO mRNA. hEPO concentrations were measured 6 hours after administration, while cytokine induction and liver and spleen levels were measured 48 hours after administration. hEPO and IP-10 concentrations are presented in pg/ml, while liver levels are provided in ng/g. ALT and AST levels are presented in international units.
The expression of hEPO induced by intravenous administration to rats of nanoparticle compositions at various doses was measured at 2, 4, 6, 8, 24, and 48 hour time points. FIGS. 3-6 respectively summarize the hEPO expression measured upon intravenous administration of formulations including Compounds 26, 18, 25, and MC3 to rat at various doses. The lipid levels of Compound 26 in the liver after 48 hours were about 19%.
The expression of hEPO and lipid levels in the liver and spleen in rats intravenously administered a nanoparticle composition at a dose of 0.2 mpk was measured at various timepoints. Compounds 18 and 25 were selected for comparison with MC3. Lipids were formulated according to the standard MC3 formulation described above. Rats were administered intravenously a single 0.2 mpk dose and expression monitored at 0.25, 0.5, 1, 2, 4, 8, 24, and 48 hours after administration.

Data set [3] in a line: Particle size and polydispersity index of nanoparticle compositions (Zetasizer Nano ZS). The settings on record: for PDI: nanoparticle composition 50:10:38.5:1.5 mol % (Table 1A); for Size (nm): nanoparticle composition lipid:DSPC:cholesterol:PEG-DMG 50:10:38.5:1.5 mol %, mRNA encoding Luc or hEPO (Table 1A). The data set is classed as physicochemical. From the text:
Nanoparticle compositions may be characterized by a variety of methods. For example, microscopy (e.g., transmission electron microscopy or scanning electron microscopy) may be used to examine the morphology and size distribution of a nanoparticle composition. Dynamic light scattering or potentiometry (e.g., potentiometric titrations) may be used to measure zeta potentials. Dynamic light scattering may also be utilized to determine particle sizes. Instruments such as the Zetasizer Nano ZS (Malvern Instruments Ltd, Malvern, Worcestershire, UK) may also be used to measure multiple characteristics of a nanoparticle composition, such as particle size, polydispersity index, and zeta potential.
A Zetasizer Nano ZS (Malvern Instruments Ltd, Malvern, Worcestershire, UK) can be used to determine the particle size, the polydispersity index (PDI) and the zeta potential of the nanoparticle compositions in 1×PBS in determining particle size and 15 mM PBS in determining zeta potential.
Initial studies were performed to compare the delivery efficiency of nanoparticle compositions including various compounds according to Formula (I), (IA), (II), (IIa), (IIb), (IIc), (IId) or (IIe). The cationic lipid MC3 is a current standard in the art. Accordingly, the standard MC3 formulation including about 50 mol % MC3, about 10 mol % DSPC, about 38.5 mol % cholesterol, and about 1.5 mol % PEG-DMG was used as a basis for this study. Nanoparticle compositions including DSPC as a phospholipid, cholesterol as a structural lipid, PEG-DMG as a PEG lipid, an RNA, and a compound according to Formula (I), (IA), (II), (IIa), (IIb), (IIc), (IId) or (IIe) selected from Compounds 1-159, 168-170, and 173-175 were prepared according to or via methods similar to those described in Examples 1 and 2. The ratios of the lipids were 50:10:38.5:1.5 mol % for the lipid according to Formula (I), (IA), (II), (IIa), (IIb), (IIc), (IId) or (IIe):DSPC:cholesterol:PEG-DMG. The RNA used was an mRNA encoding G5 luciferase (Luc) or G5 hEPO. Tables 1A-1B summarize the content and characteristics of the formulations. […]

The subject of data set [4] is mice. Description: Luc expression (bioluminescence, total flux) after intravenous administration to mice. The data set is classed as in vivo. To be noted: Luc total flux (Table 3D). The method, then:
as §1
Upon administration of nanoparticle compositions to mice, dose delivery profiles, dose responses, and toxicity of particular formulations and doses thereof can be measured by enzyme-linked immunosorbent assays (ELISA), bioluminescent imaging, or other methods. For nanoparticle compositions including mRNA, time courses of protein expression can also be evaluated. Samples collected from the rodents for evaluation may include blood, sera, and tissue (for example, muscle tissue from the site of an intramuscular injection and internal tissue); sample collection may involve sacrifice of the animals.
The efficacy of the nanoparticle compositions presented in Table 1A was evaluated with a bioluminescence study. Formulations were administered intravenously to mice (n=6) at a dosage of 0.5 mg/kg (mpk) and bioluminescence measured at 3, 6, and 24 hour time points. The standard MC3 formulation and, in some instances, a control (e.g., a PBS control) were evaluated for comparison. […] In general, flux decreased as time progressed to less than 10% of the initial flux.
as §2
The tolerability and efficacy of nanoparticle compositions to non-human primates was also investigated using sample formulations including Compounds 18, 25, 26, and 48 and MC3 to determine if these compounds are differentiated in terms of protein expression. The formulations were prepared according to the standard MC3 formulation described above and included an hEPO mRNA. Table 30 includes details of the compositions tested, while Table 31 summarizes the relative expression of Luc and hEPO mRNA in mice and rats. Expression was measured 6 hours after administration.

`CCCCCCCCCOC(=O)CCCN(CCO)CCCCCCCC(=O)OC(CCCCCCCC)CCCCCCCC` [Compound 26, Heptadecan-9-yl 8-((2-hydroxyethyl)(4-(nonyloxy)-4-oxobutyl)amino)octanoate]: in data set [1], the “Total flux (p/s) 0.001 mpk Dose” value worked out at 3.90E+06 p/s and the “Total flux (p/s) 0.01 mpk Dose” value is on record as 6.13E+07 p/s. Also, the “% Lipid Remaining in liver, 48 h* 2 mpk” value in data set [2] turned out to be 20%.

As for `CCCCCCCCC(C)OC(=O)CCCCCCCN(CCO)CCCCCCCC(=O)OC(CCCCCCCC)CCCCCCCC` (stereo not drawn) [Compound 48, decan-2-yl 8-((8-(heptadecan-9-yloxy)-8-oxooctyl)(2-hydroxyethyl)amino)octanoate], in data set [1], the “Total flux (p/s) 0.001 mpk Dose” value worked out at 4.69E+05 p/s and the “Total flux (p/s) 0.01 mpk Dose” value was 8.78E+06 p/s. Moreover, the “% Lipid Remaining in liver, 48 h* 2 mpk” value in data set [2] is reported as 7.22%.

For `CCCCCCCCC(CC)OC(=O)CCCCCCCN(CCO)CCCCCCCC(=O)OC(CCCCCCCC)CCCCCCCC` (stereo not drawn) [Compound 49, heptadecan-9-yl 8-((2-hydroxyethyl)(8-oxo-8-(undecan-3-yloxy)octyl)amino)octanoate], the “% Lipid Remaining in liver, 48 h* 2 mpk” value in data set [2] came out at 12.6%. In data set [3], the PDI turned out to be 0.110 and the “Size (nm)” value stood at 73.1 nm.

Turning to `CCCCCCCCC(CCC)OC(=O)CCCCCCCN(CCO)CCCCCCCC(=O)OC(CCCCCCCC)CCCCCCCC` (stereo not drawn) [Compound 50, dodecan-4-yl 8-((8-(heptadecan-9-yloxy)-8-oxooctyl)(2-hydroxyethyl)amino)octanoate], in data set [1], the “Total flux (p/s) 0.001 mpk Dose” value is reported as 6.56E+05 p/s and the “Total flux (p/s) 0.01 mpk Dose” value came out at 1.13E+07 p/s. Besides, in data set [2], the “% Lipid Remaining in liver, 48 h* 2 mpk” value is 15.9%.

`CCCCCCCCCOC(=O)CCCCCCCN(CCCCCCCC(=O)OC(CCCCCCCC)CCCCCCCC)C(CO)CO` [Compound 156, Heptadecan-9-yl 8-((1,3-dihydroxypropan-2-yl)(8-(nonyloxy)-8-oxooctyl)amino)octanoate]: in data set [4], the “AUC (p/s*h)” value is on record as 1.170E+011 p/s*h. Besides, in data set [3], the PDI is listed as 0.072 and the “Size (nm)” value was 74.3 nm.
